Results as given in ChEMBL document CHEMBL1201862, “PubChem BioAssay data set” (2004).
Active and inactive are the calls of the source. Rule as the data show it: actives have a measured IC50 and inactives only a lower limit.

Target: Envelope glycoprotein gp160 (Human immunodeficiency virus 1, UniProt Q6QLK5)
Experiment: inhibitors of HIV fusion peptide binding, primary screen, biochemical, uHTS, fluorescence dequenching (AID 1986)

Envelope glycoprotein gp160, sequence (Q6QLK5 whole entry, the tested form may be a part): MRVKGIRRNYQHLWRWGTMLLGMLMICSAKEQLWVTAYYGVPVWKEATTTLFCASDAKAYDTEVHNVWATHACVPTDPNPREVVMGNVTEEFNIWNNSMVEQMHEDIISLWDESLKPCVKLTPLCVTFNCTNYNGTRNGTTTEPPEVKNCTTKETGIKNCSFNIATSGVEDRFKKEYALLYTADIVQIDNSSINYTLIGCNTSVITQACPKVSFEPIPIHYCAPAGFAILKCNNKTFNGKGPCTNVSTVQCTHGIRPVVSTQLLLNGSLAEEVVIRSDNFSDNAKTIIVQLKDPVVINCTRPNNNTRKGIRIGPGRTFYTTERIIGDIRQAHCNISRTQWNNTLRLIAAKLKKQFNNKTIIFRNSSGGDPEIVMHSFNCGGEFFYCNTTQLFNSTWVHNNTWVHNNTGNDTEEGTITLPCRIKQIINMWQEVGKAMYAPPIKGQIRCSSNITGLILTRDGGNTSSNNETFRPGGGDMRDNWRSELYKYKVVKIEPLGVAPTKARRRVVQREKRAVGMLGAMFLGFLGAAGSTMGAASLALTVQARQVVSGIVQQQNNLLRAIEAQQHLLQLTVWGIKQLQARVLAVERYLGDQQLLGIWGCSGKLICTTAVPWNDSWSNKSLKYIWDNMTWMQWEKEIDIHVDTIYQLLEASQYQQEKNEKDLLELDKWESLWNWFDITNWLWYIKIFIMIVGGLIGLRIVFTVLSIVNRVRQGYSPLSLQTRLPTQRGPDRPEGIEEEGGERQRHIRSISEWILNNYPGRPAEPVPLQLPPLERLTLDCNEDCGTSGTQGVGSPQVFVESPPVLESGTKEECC

In the case of `O=C(O)CN1C(=O)/C(=C\c2ccccc2OCc2ccc(Cl)cc2Cl)SC1=S`, the IC50 is reported as 16.1 µM (active).
